Patent publication US9956319B2, “Compositions useful as antibiofilm or antimicrobial agents and methods using same” (BAYLOR COLLEGE OF MEDICINE, priority 2012, dated 2018)

Tests used:
MRSA = test: Zones of inhibition of impregnated catheter segments, modified Kirby-Bauer method; assay type: cell-based, Staphylococcus aureus
Procedure: To evaluate the antimicrobial activity of central venous catheters treated with α-lipoic acid or its combination with gentamicin, segments of 7 French triple lumen polyurethane central venous catheters were impregnated with α-lipoic acid, gentamicin, or the combination of lipoic acid and gentamicin using the same patented method described in Example 1 with 50 mg/ml of each agent (for the final solution volume). After the impregnation process and drying, zones of inhibition were performed on one-centimeter segments according to a modified Kirby-Bauer method against MSSE, MRSE, MRSA, K. pneumoniae, E. coli, P. mirabilis, Pseudomonas aeruginosa, and Candida albicans. Each segment was half embedded in the center of a Muller-Hinton agar plate that had been previously inoculated with an individual organism. Prior to placing the catheter segments in agar, each organism was grown for 18 hours in TSB to a concentration of 0.5 McFarland (10^8 cfu/ml). A cotton swab was placed in the suspension and streaked across the surface of the Muller-Hinton agar plate to cover the entire plate. All plates were placed in a 37° C. incubator for 24 hours. Zones were measured in mm after the incubation period (Table 2).
To evaluate the antimicrobial activity of central venous catheters treated with α-lipoic acid or its combination with doxycycline, segments of 7 French triple lumen polyurethane central venous catheters were impregnated with doxycycline or the combinations of α-lipoic acid and doxycycline using the same patented method described in Example 1 (U.S. Pat. No. 6,589,591) with 50 mg/ml of each agent (for the final solution volume). After the impregnation process and drying, zones of inhibition were performed on one-centimeter segments according to a modified Kirby-Bauer method against MSSE, MRSE, MRSA, K. pneumoniae, E. coli, P. aeruginosa, P. mirabilis, and C. albicans as described in Example 2. Zones of inhibition were measured in mm after the incubation period (Table 3).
(§1) To evaluate the antimicrobial activity of central venous catheters treated with lipoamide or its combination with levofloxacin, segments of 7 French triple lumen polyurethane central venous catheters were impregnated with levofloxacin or the combinations of lipoamide and levofloxacin using the same patented method described in Example 1 (U.S. Pat. No. 6,589,591) with 100 mg/ml (final solution volume) of each agent. After the impregnation process and drying, zones of inhibition were performed on one-centimeter segments according to a modified Kirby-Bauer method against MSSE, MRSE, MRSA, vancomycin-resistant Enterococcus (VRE), K. pneumoniae, E. coli, P. aeruginosa, P. mirabilis, and C. albicans as described in Example 2. Zones of inhibition were measured in mm after the incubation period (Table 4).
as §1, with “doxycycline,” for “levofloxacin,”, “doxycycline” for “levofloxacin”, “5).” for “4).”
To evaluate the antimicrobial activity of central venous catheters treated with dihydrolipoic acid, segments of 7 French triple lumen polyurethane central venous catheters were impregnated with dihydrolipoic acid using the same patented method described in Example 1 (U.S. Pat. No. 6,589,591) with 25 mg/ml (final solution volume) of the agent. […]

common pathogens = test: Anticolonization activity of impregnated central venous catheters, overall result in words; assay type: cell-based; details: result in words summarising the culture results
Procedure: Catheter segments were then placed in the impregnating solution at 55° C. with agitation for 1 hour in the dark. Catheter segments were then removed from the solution and dried under a fume hood overnight in the dark. Catheter segments were rinsed with deionized water the next day and let dry for another 18 hours in the dark. After the impregnation process and drying, one-centimeter segments of impregnated catheters were individually placed in 1 ml of 10^5 cfu/ml suspensions of methicillin-sensitive Staphylococcus epidermidis (MSSE), methicillin-resistant Staphylococcus epidermidis (MRSE), methicillin-resistant Staphylococcus aureus (MRSA), Klebsiella pneumoniae, Escherichia coli, or Proteus mirabilis in trypticase soy broth (TSB) at 37° C. for 24 hours. One-centimeter segments of non-impregnated catheters were also incubated individually in each bacterial suspension at 37° C. for 24 hours as controls. Catheter segments were removed from each bacterial suspension after this period, shaken to remove excess broth containing free-floating bacteria from their surfaces, placed in 1 ml of normal saline, sonicated for 5 minutes, and vortexed for 30 seconds.
Aliquots of each suspension and subsequent dilutions were cultured quantitatively.
To evaluate the anticolonization/antimicrobial activity of central venous catheters treated with lipoamide, segments of 7 French triple lumen polyurethane central venous catheters were impregnated with lipoamide using the same patented method described in Example 1 (U.S. Pat. No. 6,589,591) with 100 mg/ml (final solution volume) of the agent. After the impregnation process and drying, Catheter segments were then placed in the impregnating solution at 55° C. with agitation for 1 hour in the dark. Catheter segments were then removed from the solution and dried under a fume hood overnight in the dark. Catheter segments were rinsed with deionized water the next day and let dry for another 18 hours in the dark. […]

For `NC(=O)CCCCC1CCSS1` (stereo not drawn) [Lipoamide, lipoamide], the zone of inhibition at 100000 µg/mL (MRSA; Staphylococcus aureus, catheter impregnated with 100 mg/ml of each agent) was 10 mm and the “bacterial cells adhered to treated catheter segments compared to control uncoated catheter segments” value (common pathogens) was “substantially fewer or no bacterial cells adhered to them”.

For `O=C(O)CCCCC1CCSS1` (stereo not drawn) [Lipoic acid, 1,2-dithiolane-3-pentanoic acid], the zone of inhibition at 50000 µg/mL (MRSA; Staphylococcus aureus, catheter impregnated with 50 mg/ml of each agent, 37° C., 24 hours) was 13 mm and the “bacterial cells adhered to treated catheter segments compared to control uncoated catheter segments” value (common pathogens) was “substantially fewer or no bacterial cells adhered to them”.

`O=C(O)CCCCC(S)CCS` (stereo not drawn) [Dihydrolipoic acid, 6,8-dimercaptooctanoic acid] was tested, and the Zones of inhibition (MRSA; catheter impregnated with 25 mg/ml of the agent) was 24 mm and the “bacterial cells adhered to treated catheter segments compared to control uncoated catheter segments” value (common pathogens) was “substantially fewer bacterial cells adhered to them”.
